Assay results published in patent publication US6335306B1, “Thermosensitive recording material of heat fixing type and method of fixing the same” (Oji Paper Co., Ltd., priority 1998, dated 2002).
Counter-ions that a name gives are not always drawn.

Test: Color Developer Test Method: solvent resistance of the color image, dioctyl phthalate (Mdd)
Format: physicochemical
Conditions: colored portion coated with dioctyl phthalate, wiped, left standing 0.5 hour; Macbeth RD-914
Experimental: (§1) Thermosensitive recording paper sheet is prepared by a process which will be described below.
(§2) The above-described composition is pulverized with a paint shaker to an average particle diameter of about 1 μm.
(§3) The above-described composition is pulverized with a paint shaker to an average particle diameter of not larger than 1 μm.
(§4) The above-described composition is pulverized with a paint shaker to an average particle article diameter of not larger than 1 μm.
(§5) A coating liquid is obtained by mixing 60 parts of the dispersion A, 240 parts of the dispersion B, 80 parts of the dispersion C, and 90 parts of 10% aqueous polyvinyl alcohol solution under stirring. The coating liquid thus obtained is applied to the support so that the amount of the coating after drying would be 8.0 g/m^2 to form a thermosensitive color image-forming layer, and thereby to obtain a thermosensitive recording paper.
(§6) The sample thus obtained is printed with a coloring tester (THPMD; a product of Ohkura Electric Co., Ltd.) under conditions comprising a printing voltage of 21.7 V and printing pulse of 1.0 ms. The color density of the printed parts is determined with a Macbeth Reflection Color Density Tester RD-914 (a product of Macbeth).
(§7) The colored portion of the thermosensitive recording material thus obtained in (5) is coated with dioctyl phthalate or salad oil, which is then removed by wiping with Klinex, followed by leaving it for standing for 0.5 hour and measuring the density of the printed parts is determined with a Macbeth Reflection Color Density Tester RD-914 (a product of Macbeth).
(§8) The solvent resistance of the color image formed by using the color developer can be evaluated based on the Macbeth density (hereinafter referred to as “Mdd”) of 0.2 or higher, preferably 0.4 or higher according to the Color Developer Test Method as stated above wherein dioctyl phthalate is used. The solvent resistance of the color image formed using the color developer can be evaluated based on the Macbeth density (hereinafter referred to as “Mds”) of 0.5 or higher, preferably 0.6 or higher according to the Color Developer Test Method as stated above wherein salad oil is used.

First: Cc1ccc(S(=O)(=O)NC(=O)Nc2ccc(Oc3ccc(NC(=O)NS(=O)(=O)c4ccc(C)cc4)cc3)cc2)cc1 [4,4′-bis(p-toluenesulfonylaminocarbonylamino)diphenyl ether]
Second: Cc1ccc(S(=O)(=O)NC(=O)Nc2ccc(Oc3cccc(NC(=O)NS(=O)(=O)c4ccc(C)cc4)c3)cc2)cc1 [3,4′-bis(p-toluenesulfonylaminocarbonylamino)diphenyl ether]
The “Mdd (Macbeth density of the printed part after coating with dioctyl phthalate)” value of the first is higher: 1.0 for the first, 0.93 for the second.

Compared with Cc1ccc(S(=O)(=O)NC(=O)Nc2ccc(Sc3ccc(NC(=O)NS(=O)(=O)c4ccc(C)cc4)cc3)cc2)cc1 [4,4′-bis(p-toluenesulfonylaminocarbonylamino)diphenyl sulfide], Cc1ccc(S(=O)(=O)NC(=O)Nc2ccc(Cc3ccc(NC(=O)NS(=O)(=O)c4ccc(C)cc4)cc3)cc2)cc1 [4,4′-bis(p-toluenesulfonylaminocarbonylamino)diphenylmethane] is higher in “Mdd (Macbeth density of the printed part after coating with dioctyl phthalate)” value: 0.96 for the first, 1.0 for the second.

First: CC(C)(c1ccc(O)cc1)c1ccc(O)cc1 [2,2-bis(4-hydroxyphenyl)propane, reference compound]
Second: COc1ccc(OCCOc2ccc(C(=O)O)c(O)c2)cc1 [4-(2-(p-methoxyphenyloxy)ethyloxy)salicylic acid]
The “Mdd (Macbeth density of the printed part after coating with dioctyl phthalate)” value of the first is lower: 0.1 for the first, 0.5 for the second.

Compared with Cc1ccc(S(=O)(=O)NC(=O)Nc2cccc(S(=O)(=O)c3cccc(NC(=O)NS(=O)(=O)c4ccc(C)cc4)c3)c2)cc1 [3,3′-bis(p-toluenesulfonylaminocarbonylamino)diphenylsulfone], Cc1ccc(S(=O)(=O)NC(=O)Nc2ccc(S(=O)(=O)c3ccc(NC(=O)NS(=O)(=O)c4ccc(C)cc4)cc3)cc2)cc1 [4,4′-bis(p-toluenesulfonylaminocarbonylamino)diphenylsulfone] is higher in “Mdd (Macbeth density of the printed part after coating with dioctyl phthalate)” value: 0.63 for the first, 0.81 for the second.

Going from O=C(Nc1ccc(Cc2ccc(NC(=O)NS(=O)(=O)c3ccccc3)cc2)cc1)NS(=O)(=O)c1ccccc1 [4,4′-bis(benzenesulfonylaminocarbonylamino)diphenyl methane] to Cc1ccccc1S(=O)(=O)NC(=O)Nc1ccc(Cc2ccc(NC(=O)NS(=O)(=O)c3ccccc3C)cc2)cc1 [4,4′-bis(o-toluenesulfonylaminocarbonylamino)diphenyl methane], the “Mdd (Macbeth density of the printed part after coating with dioctyl phthalate)” value rises from 0.8 to 1.0.

For Cc1ccc(S(=O)(=O)NC(=O)Nc2ccc(Oc3cccc(Oc4ccc(NC(=O)NS(=O)(=O)c5ccc(C)cc5)cc4)c3)cc2)cc1 [1,3-bis(4′-(p-toluenesulfonylaminocarbonylamino)phenyloxy)benzene], the “Mdd (Macbeth density of the printed part after coating with dioctyl phthalate)” value was 1.0.

Same assay, conditions: colored portion coated with dioctyl phthalate, wiped, left standing 0.5 hour; Macbeth RD-914; listed as 3,4′-bis(p-toluenesulfonylaminocarbonylamino)diphenyl ether

With Cc1ccc(S(=O)(=O)NC(=O)Nc2ccc(Oc3cccc(NC(=O)NS(=O)(=O)c4ccc(C)cc4)c3)cc2)cc1 [3,4′-bis(p-toluenesulfonylaminocarbonylamino)diphenyl ether] the “Mdd (Macbeth density of the printed part after coating with dioctyl phthalate)” value was 1.0.

Test: Color Developer Test Method: solvent resistance of the color image, salad oil (Mds)
Format: physicochemical
Conditions: colored portion coated with salad oil, wiped, left standing 0.5 hour; Macbeth RD-914
Experimental: as §1, §2, §3, §4, §5, §6, §7, §8

First: Cc1ccc(S(=O)(=O)NC(=O)Nc2cccc(NC(=O)NS(=O)(=O)c3ccc(C)cc3)c2)cc1 [1,3-bis(p-toluenesulfonylaminocarbonylamino)benzene]
Second: Cc1ccc(S(=O)(=O)NC(=O)Nc2ccc(NC(=O)NS(=O)(=O)c3ccc(C)cc3)cc2)cc1 [1,4-bis(p-toluenesulfonylaminocarbonylamino)benzene]
The “Mds (Macbeth density of the printed part after coating with salad oil)” value of the first is higher: 1.2 for the first, 0.84 for the second.

Going from Cc1ccc(S(=O)(=O)NC(=O)Nc2cccc3cccc(NC(=O)NS(=O)(=O)c4ccc(C)cc4)c23)cc1 [1,8-bis(p-toluenesulfonylaminocarbonylamino)naphthalene] to Cc1ccc(S(=O)(=O)NC(=O)Nc2cccc3c(NC(=O)NS(=O)(=O)c4ccc(C)cc4)cccc23)cc1 [1,5-bis(p-toluenesulfonylaminocarbonylamino)naphthalene], the “Mds (Macbeth density of the printed part after coating with salad oil)” value rises from 0.73 to 1.05.

First: O=S(=O)(c1ccccc1)c1ccc(O)c(S(=O)(=O)c2ccccc2)c1 [2,4-bis(phenylsulfonyl)phenol]
Second: O=C(Nc1ccc(Cc2ccc(NC(=O)NS(=O)(=O)c3cccc4ccccc34)cc2)cc1)NS(=O)(=O)c1cccc2ccccc12 [4,4′-bis(1-naphthalenesulfonylaminocarbonylamino) diphenyl methane]
The “Mds (Macbeth density of the printed part after coating with salad oil)” value of the first is higher: 0.6 for the first, 0.5 for the second.

Test: log P, OECD Chemical Test Guideline No. 117, partition coefficient
Conditions: OECD Guideline No. 117
Excerpt: The log P in the present invention is a value determined according to OECD Test, Chemical Test Guideline No. 117, Partition Coefficient; edited by Chemical Product Examination Association). The log P is the logarithm of the partition coefficient P. The higher the value of the partition coefficient, the higher the hydrophobicity; and the lower thereof, the higher the hydrophilicity.

Going from C=CCOc1ccc(S(=O)(=O)c2ccc(OCC=C)cc2)cc1 [4,4′-diallyloxydiphenylsulfone] to O=C(CCCCC(=O)OCc1ccccc1Cl)OCc1ccccc1Cl [di-o-chlorobenzyl adipate], the “log P” value rises from 3.3 to 5.8.

Same assay, conditions: n-octanol/water

First: CC(=O)CC(=O)Nc1ccccc1Cl [o-chloroacetoacetoanilide]
Second: O=C(Oc1ccccc1)c1ccc2ccccc2c1O [phenyl 1-hydroxy-2-naphthoate]
The chromatographic logP of the first is lower: 0.2 for the first, 5.1 for the second.

Compared with O=C(OCc1ccccc1)c1ccc(C(=O)OCc2ccccc2)cc1 [dibenzyl terephthalate], c1ccc(Cc2ccc(-c3ccccc3)cc2)cc1 [p-benzylbiphenyl] is higher in chromatographic logP: 5.7 for the first, 6.3 for the second.

Cc1ccc(OS(=O)(=O)c2c(C)cc(C)cc2C)cc1 [p-tolyl mesitylenesulfonate] and Cc1ccc(Oc2ccc(Oc3ccc(C)cc3)cc2)cc1 [1,4-bis(p-tolyloxy)benzene] are the same in chromatographic logP: 3.1 for the first, 3.1 for the second.

Going from COc1ccc(OCCOCCOc2ccc(OC)cc2)cc1 [bis(2-(4-methoxyphenoxy)ethyl) ether] to c1ccc(OCCOc2ccc3ccccc3c2)cc1 [1-phenoxy-2-β-naphthoxyethane], the chromatographic logP rises from 2.9 to 5.2.

For Cc1cccc(OCCOc2cccc(C)c2)c1 [1,2-bis(m-tolyloxy)ethane], the chromatographic logP was 5.

Same assay, conditions: n-octanol/water (OECD Test Guideline 117, HPLC method)

First: Cc1ccc(S(=O)(=O)Oc2ccccc2)cc1 [phenyl p-toluenesulfonate]
Second: O=S(=O)(c1ccccc1)c1ccccc1 [diphenylsulfone]
The chromatographic logP of the first is higher: 3.1 for the first, 1.5 for the second.

Going from O=C(Oc1ccccc1)c1ccc2ccccc2c1O [phenyl 1-hydroxy-2-naphthoate] to c1ccc(OCCOc2ccccc2)cc1 [1,2-diphenoxyethane], the chromatographic logP falls from 5.1 to 3.6.

Compound O=C(OCc1ccccc1)C(=O)OCc1ccccc1 [dibenzyl oxalate] has a chromatographic logP of 3.1.

Same assay, conditions: octanol/water

Going from Cc1ccc(CCc2ccc(C)c(C)c2)cc1C [1,2-bis(3,4-dimethylphenyl)ethane] to c1ccc(-c2cccc(-c3ccccc3)c2)cc1 [m-terphenyl], the chromatographic logP falls from 7.8 to 6.16.
